{"source": "patent US20230355622A1", "about": "“METHODS OF CHEMOVACCINATION AGAINST PLASMODIUM INFECTIONS” (Merck Sharp & Dohme LLC, priority 2020, published 2023)", "key": {"parasite": {"test_system": "parasite", "assay": "Parasite LDH growth assay (Parasite Assay), antiparasite potency", "format": "cell-based", "conditions": "72 h", "summary_of_the_method": "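Growth was read by an LDH assay after a freeze–thaw cycle (−80 °C overnight, 4 h thaw at RT). Before that, parasites grew with compound for 72 h at 37 °C under gassed, humidified conditions. The input was a ring-stage culture adjusted to 0.7% parasitemia and 2% haematocrit in serum (5%)/albumax (0.5%)-supplemented RPMI-Hepes.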"}, "PMX": {"target": "PMX (Plasmodium falciparum, UniProt Q8IAS0)", "sequence (Q8IAS0 222-573)": "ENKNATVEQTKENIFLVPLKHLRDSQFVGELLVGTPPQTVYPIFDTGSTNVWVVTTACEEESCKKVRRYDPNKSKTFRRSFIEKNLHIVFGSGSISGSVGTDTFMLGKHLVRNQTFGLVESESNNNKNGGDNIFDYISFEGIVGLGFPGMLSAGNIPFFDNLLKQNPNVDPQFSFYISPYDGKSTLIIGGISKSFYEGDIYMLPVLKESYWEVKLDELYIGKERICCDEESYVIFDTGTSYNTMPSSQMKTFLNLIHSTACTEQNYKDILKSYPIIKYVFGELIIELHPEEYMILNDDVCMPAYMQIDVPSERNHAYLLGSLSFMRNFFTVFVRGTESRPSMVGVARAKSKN", "conditions": "P. falciparum parasites incubated with compound; SERA5 120 kDa, processed by SUB1", "description": "SERA5 is a 120 kDa protein required for merozoite egress and is processed by subtilisin-like protease subtilisin 1 (SUB1) to release a soluble polypeptide of approximately 50 kDa (Pino, P., Caldelari, R., Mukherjee, B., Vahokoski, J., Klages, N., Maco, B., et al. (2017). A multistage antimalarial targets the plasmepsins IX and X essential for invasion and egress. Science 358, 522-528). […] SERA5 was included as a control in all subsequent experiments as a proxy for PMX-mediated activation of SUB1."}, "[1]": {"test_system": "P. berghei sporozoites expressing mCherry and Luciferase (PbmCherryLuci)", "assay": "Chemoprotection of BALB/c mice infected with PbmCherryLuci sporozoites (FIG. 1)", "format": "in vivo, Plasmodium berghei", "conditions": "female BALB/c mice, 40,000 sporozoites i.v.; treated twice by oral gavage at 36 and 48 hours during liver infection; 30 days monitoring", "description": "40,000 PbmCherryLuci sporozoites (or the indicated number of sporozoites) were inoculated i.v. and compounds were administered by oral gavage at indicated time points during liver infection. Liver infection levels and egress of parasites from the liver were measured by bioluminescence signal from the parasites using an In Vivo Imaging System (IVIS, Perkin Elmer) at the peak of liver infection (52 hours post infection, hpi), during liver egress (55 hpi) as well as during the first round of blood infection (65 hpi). Initiation of blood infection was also measured by flow cytometry at 65 hpi using the mCherry reporter to determine the parasitemia of this first round of blood infection. These analyses allowed quantification of the efficacy of drug killing of parasites in the liver (52 hpi), preventing their egress from the liver (55 hpi) or preventing their successful infection of the blood (65 hpi). Mice were monitored by giemsa stained thin blood smears for the presence of parasites in the blood for 30 days post infection. If no blood infection was seen during the subsequent 30 days, mice were declared cured of malaria infection.\nMice were infected with 40,000 P. berghei sporozoites expressing mCherry and Luciferase (PbmCherryLuci) and treated with Example 1A as described above. […]"}, "PbmCherryLuci [2]": {"test_system": "PbmCherryLuci", "assay": "Rechallenge of chemo-protected mice by mosquito bite infection at 6 and 12 months (FIG. 2A, 2B)", "format": "in vivo, Plasmodium berghei", "conditions": "15 infected mosquito bites", "description": "Previously chemo-protected mice were rechallenged with PbmCherryLuci 6 months later by mosquito bite infection. […] In both experiments naïve, sex matched control mice all became infected as expected. Thus in addition to chemoprotection, Example IA could possibly act as a chemovaccination to protect against future infections for one year or more."}, "PbmCherryLuci [3]": {"test_system": "PbmCherryLuci", "assay": "Prime/boost immunisation of C57BL/6 mice with CD8 depletion before mosquito bite challenge (FIG. 4)", "format": "in vivo, Plasmodium berghei", "conditions": "C57BL/6, prime/boost with 2 x 100 mg/kg P.O., 10 mosquito bites ten weeks after boost", "description": "In addition to these protective antibody responses, the contribution of CD8 T-cells to the mechanism of immune protection was tested. Female C57BL/6 mice were immunized using a prime/boost immunisation regimen. The first immunisation was with 40,000 PbmCherryLuci salivary gland sporozoites i.v. followed by two doses of Example 1A at 100 mg/kg P.O. (given at 36 and 48 hours post infection). The second immunisation (boost) was eight weeks later, this time with 20,000 PbmCherryLuci sporozoites but with Example IA treatment as for the prime immunisation. Ten weeks after the boost immunisation (eighteen weeks after the prime immunisation) the mice were injected with 150 μg of a CD8 depleting antibody, or an isotype control non-depleting antibody the day before the mice were challenged with the bites of 10 PbmCherryLuci infected mosquitoes for 15 minutes. Giemsa stained thin blood smears were analysed until 30 days after challenge for the presence of parasites in the blood and mice were considered to be protected from infection if no blood parasites were observed within the 30 days post […]."}, "[4]": {"test_system": "PbmCherryLuci sporozoites", "assay": "Immunity after chemovaccination with increasing numbers of sporozoites, BALB/c mice (FIG. 5-7)", "format": "in vivo, Plasmodium berghei", "description": "To investigate how many sporozoites are required to develop immunity, female BALB/c mice (n=3/group) were infected intravenously (i.v.) with increasing numbers of PbmCherryLuci sporozoites and cured with 2×100 mg/kg doses of Example 1A. Three months later, the chemovaccinated mice were challenged with 10 PbmCherryLuci infected mosquito bites. […] Twelve months later, the chemovaccinated mice were challenged with 10 PbmCherryLuci infected mosquito bites."}, "[5]": {"test_system": "P. falciparum salivary gland sporozoites", "assay": "Chemoprophylaxis of humanised (FRG) mice infected with P. falciparum sporozoites (FIG. 10)", "format": "in vivo", "conditions": "FRG mouse with human hepatocytes, 300,000 sporozoites i.v.; four oral treatments 100 mg/kg at day 5, 5.5, 6, 6.5", "description": "Four immunocompromised mice engrafted with human hepatocytes (FRG mice, Yecuris, OR, USA) were each infected intravenously with 300,000 freshly dissected P. falciparum salivary gland sporozoites. Three mice received no treatment, while one mouse received four oral treatments with 100 mg/kg Example 1A during P. falciparum liver stage development (at day 5, day 5.5, day 6 and day 6.5 post infection). […] On day 7 post infection all mice were bled, and the blood cultured under standard culture conditions at 4% hematocrit with 1% oxygen. Fresh hematocrit was added to the cultures each week to provide fresh host cells for infection, and cultures were analysed for the presence of blood parasites 2-3 times per week by inspection of Giemsa-stained thin blood smears."}}}
{"smiles": "CCC1(CC)CC(=O)N(C2CCOc3ccc(C(=O)N[C@H]4CC(C)(C)Oc5ccccc54)cc32)C(=N)N1", "note": "(stereo partly drawn) [Example 1A, 4-(4,4-diethyl-2-imino-6-oxotetrahydropyrimidin-1(2H)-yl)-N—((S)-2,2-dimethylchroman-4-yl)chroman-6-carboxamide]", "values": [{"measurement": "EC50", "setting": "parasite", "result": 0.5, "unit": "nM"}, {"measurement": "SERA5 processing", "setting": "PMX", "result": "accumulation of unprocessed SERA5 at 120 kDa"}, {"measurement": "cure of infection / prevention of subsequent blood infection", "setting": "[1]", "result": "cured mice of infection"}, {"measurement": "immunity to reinfection challenge", "setting": "PbmCherryLuci [2]; rechallenge 6 months later", "result": "all mice were subsequently immune"}, {"measurement": "mice fully protected on rechallenge", "setting": "PbmCherryLuci [2]; rechallenge 12 months after chemoprotection", "result": "Four of five mice were again fully protected"}, {"measurement": "blood parasites after challenge", "setting": "PbmCherryLuci [3]; 150 μg CD8 depleting antibody", "result": "all had blood parasites 4 days after challenge"}, {"measurement": "blood parasites after challenge", "setting": "PbmCherryLuci [3]; isotype control non-depleting antibody", "result": "negative for blood parasites throughout the 30-day observation period"}, {"measurement": "mice with sterile protection from blood stage malaria infection", "setting": "[4]; BALB/c n=3/group, immunized with 500 sporozoites i.v., 2x100 mg/kg, 3-month challenge, 10 mosquito bites", "result": "1/3"}, {"measurement": "sterile protection from blood stage malaria infection", "setting": "[4]; challenge at 12 months (FIG. 7)", "result": "all mice showed sterile protection"}, {"measurement": "mice that developed malaria symptoms but showed partial immunity", "setting": "[4]; immunized with 500 sporozoites i.v., 2x100 mg/kg, 3-month challenge", "result": "2/3"}, {"measurement": "sterile protection from blood stage malaria infection", "setting": "[4]; immunized with 1,000 sporozoites i.v., 2x100 mg/kg, 3-month challenge", "result": "showed sterile protection from blood stage malaria infection"}, {"measurement": "sterile protection from blood stage malaria infection", "setting": "[4]; immunized with 40,000 sporozoites i.v., 2x100 mg/kg, 3-month challenge", "result": "showed sterile protection from blood stage malaria infection"}, {"measurement": "immunity on re-challenge", "setting": "[4]; mice immune at 3 months, re-challenged at 6 and 12 months post initial immunization", "result": "completely immune"}, {"measurement": "blood parasites in culture of blood taken day 7 post infection", "setting": "[5]", "result": "remained negative for blood parasites over an eight-week observation period"}]}
